Assay results: patent US20160346255A1, “METHODS, AGENTS AND COMPOSITIONS FOR TREATMENT OF INFLAMMATORY CONDITIONS” (Betanien Hospital, priority 2014, published 2016)
Non-standard residues stand in square brackets, D forms with d. Residues, ends and D or L forms follow the SMILES beside them. *: point of attachment. dPhe(4-NHCONH2) = NC(=O)Nc1ccc(C[C@@H](N)C(=O)O)cc1; Dihydroorotyl(S) = O=C1C[C@@H](C(=O)*)NC(=O)N1; dPhe(4-Cl) = N[C@H](Cc1ccc(Cl)cc1)C(=O)O; Phe(4-NH2) = Nc1ccc(C[C@H](N)C(=O)O)cc1; d2Nal = N[C@H](Cc1ccc2ccccc2c1)C(=O)O; Lys(iPr) = CC(C)NCCCC[C@H](N)C(=O)O; d3Pal = N[C@H](Cc1cccnc1)C(=O)O

Key:
Format in all cases: in vivo, human
Patient with Lupus = assay: Lupus patient treated with degarelix (and earlier therapies)
Description: Example of Treating a Patient with Lupus with a GnRH Antagonist
Due to their painful condition, they have been followed up by a pain clinic. They were offered a tricyclic antidepressant, amitriptyline 25 mg in March 2014 for their painful condition.
Therefore, we decided to offer […] degarelix. GnRH antagonists have shown anti-inflammatory effects and therefore we considered that degarelix, a depot GnRH antagonist, may have a therapeutic effect in lupus. 09.15.14, […] received […] loading dose of degarelix, 240 mg s.c.
They received their second dose of degarelix in October 2014, 80 mg s.c. They continue on 80 mg s.c. every two weeks.

[1] = tested on: Patient with Inflammatory Bowel Disease; assay: Inflammatory bowel disease (colitis) patient treated with degarelix
Description: • person, diagnosed with colitis • Inflammatory bowel disease, colitis verified on colonic biopsy sample. Patients with inflammatory colitis usually have a higher incidence of autoimmune diseases. This patient also had ankylosing spondylitis. • September 2014 received first dose of degarelix 240 mg s.c. • Received degarelix 80 mg s.c. approximately every two weeks thereafter. • The inflammatory bowel diseases (IBDs), Crohn's disease and ulcerative colitis, are chronic relapsing, remitting disorders. The assessment of disease activity presents challenges to clinicians. Fecal biomarkers, such as fecal calprotectin, are a non-invasive method which can be used to aid managing clinicians. Calprotectin is released extracellularly in times of cell stress or damage and can be detected within feces and thus be used as a sensitive marker of intestinal inflammation. […] Fecal calprotectin levels are elevated in patients with both Crohn's disease and ulcerative colitis (1-2). There have been several studies looking at the use of fecal calprotectin to predict or monitor response to treatment. • In a study looking at 11 patients with relapsing IBD, fecal calprotectin was analysed at inclusion and after 8 weeks of treatment. Treatment was individualized medical therapy. A normalized fecal calprotectin concentration at 8 weeks predicted a complete response in 100% of patients (3), corresponding to endoscopic mucosal healing (4). It has been shown that in patients with steroid induced clinical remission fecal calprotectin levels can remain elevated (5-6). […] A level of <50 mg/kg is considered normal or remission for IBD. • There is no gold standard index in the measurement of colitis disease activity in clinical trials. Due to the invasive nature of endoscopies, the Mayo non-invasive colitis assessment of response score can be used to assess treatment effect of IBD in clinical trials (9-11). […] Both the partial Mayo and total Mayo score are used to assess disease activity in clinical trials (13). The partial Mayo score also had good discriminatory value between subjects in remission and those with active disease (14). A clinical response has been defined as a 3 point or greater change in the partial Mayo score (15).

[2] = tested on: Patient with Systemic Sclerosis; assay: Systemic sclerosis patient treated with degarelix; settings: for HAQ DI: baseline 1.88; for Digital tip ulcers/pitting scars: baseline 5; for Modified Rodnan Skin Score: baseline 42; for VAS Fatigue / VAS Fingertip pain/pitting scars/ulcers / VAS Gastrointestinal Symptoms / VAS Global / VAS Lung/dyspnea / VAS Pain / VAS Raynauds/vascular: baseline 100; for Sleep: baseline 2 hrs/night
Excerpt: • person, diagnosed with systemic sclerosis • Fulfilled the 2013 EULAR/ACR classification criteria for systemic sclerosis (1). • Diagnosis based upon Raynauds phenomenon, positive ANA, high titre anti-Scl 70 antibodies, marked skin changes typical of scleroderma, and esophageal dysmotility. • Previously tried cyclophosphamide and mycophenolate mofetil. • Progressive disease and worsening scleroderma skin features, despite therapy. • Rapid progressive cardiac disease, verified by biopsy. • Experimental treatment • 5 Dec. 2014 received first dose of degarelix, 240 mg s.c. • 9 Jan. 2015 received second dose of degarelix, 80 mg s.c.
• Digital ulcers and pitting scars are a characteristic feature of systemic sclerosis, contributing to disability and pain. They are important factors in patients' evaluations of quality of life (2). Their precise objective evaluation can be included in randomized controlled trials (3). Their pathogenesis is unclear. Histologically, there is a plug-like hyperkeratosis with parakeratosis, homogenized collagen fibers and perivascular mononuclear cell infiltration (4). […] Efficacy variables in a systemic sclerosis patient treated with a GnRH antagonist at baseline, 5 weeks and 6 weeks: […]

[3] = tested on: Patient with Spondyloarthritis; assay: Spondyloarthritis patient treated with degarelix; settings: for BASDAI: baseline 3.8
Description: • person, diagnosed with spondyloarthritis • Fulfilled the ASAS criteria for axial radiographic spondyloarthritis. • October 2014 received first dose of degarelix, 240 mg s.c. • Received degarelix 80 mg s.c. every two weeks thereafter. Disease activity in ankylosing spondylitis/spondyloarthritis is measured by the BASDAI (Bath Ankylosing Spondylitis Disease Activity Index (1)), has been extensively validated in clinical trials (2-3), and is one of the most commonly used outcome measures in clinical trials. This is a composite index that evaluates fatigue, axial and peripheral pain, stiffness and enthesopathy. Their BASDAI was at 3.8 at baseline. In October 2014 they received their first dose of degarelix 240 mg s.c. By 2 weeks, their BASDAI had reduced to 2.9, and by 8 weeks it had reduced to 1.3, remission. At 4 months, their BASDAI continues to be low at 1.5. • Response to therapy in clinical practice is defined as improvement of 2 units or 50% on a 0-10 scale of the BASDAI, and expert opinion that the treatment should be continued. Their reduction by 4 months was 2.3. We shall continue treatment.

With CC(=O)N[C@H](Cc1ccc2ccccc2c1)C(=O)N[C@H](Cc1ccc(Cl)cc1)C(=O)N[C@H](Cc1cccnc1)C(=O)N[C@@H](CO)C(=O)N[C@@H](Cc1ccc(NC(=O)[C@@H]2CC(=O)NC(=O)N2)cc1)C(=O)N[C@H](Cc1ccc(NC(N)=O)cc1)C(=O)N[C@@H](CC(C)C)C(=O)N[C@@H](CCCCNC(C)C)C(=O)N1CCC[C@H]1C(=O)N[C@H](C)C(N)=O [degarelix] (Ac-[d2Nal][dPhe(4-Cl)][d3Pal]S[Phe(4-NH2)](Dihydroorotyl(S))[dPhe(4-NHCONH2)]L[Lys(iPr)]P[dA]-NH2) the Total urinary protein (Patient with Lupus; 7 Nov. 2014, 15 Sep. 2014 0.78) was 0.17 g/L, the “LH (<12)” value (Patient with Lupus; 7 Nov. 2014, 15 Sep. 2014 11) was <0.3 and the “FSH (<12)” value (Patient with Lupus; 7 Nov. 2014, 15 Sep. 2014 14) was <0.1. The “ANA (<1)” value (Patient with Lupus; 7 Nov. 2014, 15 Sep. 2014 >32 out of range) was 26↑, the Total urinary protein (Patient with Lupus; 14 Oct. 2014, 15 Sep. 2014 0.78) was 0.15 ^2 g/L and the “FSH (<12)” value (Patient with Lupus; 14 Oct. 2014, 15 Sep. 2014 14) was <0.1. The “ANA (<1)” value (Patient with Lupus; 14 Oct. 2014, 15 Sep. 2014 >32 out of range) was 28↑, the Total urinary protein (Patient with Lupus; 23 Sep. 2014, 15 Sep. 2014 0.78) was 0.75 ↑ g/L and the “LH (<12)” value (Patient with Lupus; 23 Sep. 2014, 15 Sep. 2014 11) was <0.3. For the same compound, the “FSH (<12)” value (Patient with Lupus; 23 Sep. 2014, 15 Sep. 2014 (loading dose day) 14) was 2, the “ANA (<1)” value (Patient with Lupus; 25 Sep. 2014, 15 Sep. 2014 >32 out of range) was 31 ↑ and the Parasthesias (Patient with Lupus; by 1 month of treatment, balance improved) was “no longer has parasthesias”. For the same compound, the Proteinuria (Patient with Lupus; by 1 month, still in remission at 2 months) was “complete remission”, the Morning pain (Patient with Lupus; by 8 weeks, before 3.5 hours) was 0 h and the Morning pain (Patient with Lupus; by day 5, before 3.5 hours) was 1.5 h. The Morning pain (Patient with Lupus; by day 10, before 3.5 hours) was 0 h, the “Ulcers on toes and hands” value (Patient with Lupus; by day 10 of treatment) was “several ulcers had healed” and the Foot erythema (Patient with Lupus; week 8 (FIG. 8)) was “decreased”. For the same compound, the “Fecal calprotectin (<50 normal)” value ([1]; 2 Oct. 2014, normal) was 48, normal mg/kg, the “Fecal calprotectin (<50 normal)” value ([1]; 10 Jan. 2015, normal) was 32, normal mg/kg and the “Fecal calprotectin (<50 normal)” value ([1]; 24 Sep. 2014 (started 10.09.14), high) was 79, high mg/kg. For the same compound, the “Partial Mayo score” value ([1]; at 12 weeks, baseline 3) was 0, the “HAQ DI” value ([2]; 5 weeks) was 1.38 and the “Digital tip ulcers/pitting scars” value ([2]; 5 weeks) was 2. For the same compound, the “Modified Rodnan Skin Score” value ([2]; 5 weeks) was 40, the “VAS Fatigue” value ([2]; 5 weeks) was 75 and the “VAS Fingertip pain/pitting scars/ulcers” value ([2]; 5 weeks) was 40. The “VAS Gastrointestinal Symptoms” value ([2]; 5 weeks) was 80, the “VAS Global” value ([2]; 5 weeks) was 40 and the “VAS Lung/dyspnea” value ([2]; 5 weeks) was 80. The “VAS Pain” value ([2]; 5 weeks) was 10, the “VAS Raynauds/vascular” value ([2]; 5 weeks) was 40 and the Sleep ([2]; 5 weeks) was 5 hrs/night. For the same compound, the “HAQ DI” value ([2]; 6 weeks) was 1.38, the “Digital tip ulcers/pitting scars” value ([2]; 6 weeks) was 2 and the “Modified Rodnan Skin Score” value ([2]; 6 weeks) was 40. The “VAS Fatigue” value ([2]; 6 weeks) was 60, the “VAS Fingertip pain/pitting scars/ulcers” value ([2]; 6 weeks) was 30 and the “VAS Gastrointestinal Symptoms” value ([2]; 6 weeks) was 60. The “VAS Global” value ([2]; 6 weeks) was 40, the “VAS Lung/dyspnea” value ([2]; 6 weeks) was 50 and the “VAS Pain” value ([2]; 6 weeks) was 10. For the same compound, the “VAS Raynauds/vascular” value ([2]; 6 weeks) was 30, the Sleep ([2]; 6 weeks) was 5.5 hrs/night and the BASDAI ([3]; at 4 months) was 1.5. The BASDAI ([3]; by 2 weeks) was 2.9, the BASDAI reduction ([3]; by 4 months) was 2.3 and the BASDAI ([3]; by 8 weeks, remission) was 1.3.
